Measured values taken from patent US8404651B2, “Compositions and methods for treating viral infections” (priority 2008, dated 2013).
Several values for one entry are separate records, joined by “and”; a condition that tells them apart may be missing. Equal entries are not always repeated.

Assays:
TA1535 = assay: In vitro bacterial mutagenicity assay (pre-incubation), strain TA1535; conditions: for Number of revertants x1, x2, x3: individual plates
Description: (§1) Dispense 100 microliter aliquots of the appropriate bacterial cultures into sample tubes stored on ice. Dispense aliquots of the vehicle, positive controls or dose formulations into the appropriate sample tubes. 2 mL top Agar and HBT cap was added to the sample tube, inverted three times and poured into MG plate. The lid was replaced on the plate and left on a level surface to let the agar harden. The plates were incubated in an incubator for 48 to 72 h. The background lawn and count the number of revertants was checked for each plate.

TA1537 = assay: In vitro bacterial mutagenicity assay (pre-incubation), strain TA1537; conditions: for Number of revertants x1, x2, x3: individual plates
Description: as §1

[1] = TA1535, absence of S9, 50 μg/plate
[2] = TA1535, absence of S9, 158 μg/plate
[3] = TA1535, absence of S9, 500 μg/plate
[4] = TA1535, absence of S9, 1581 μg/plate
[5] = TA1535, absence of S9, 5000 μg/plate
[6] = TA1535, presence of S9, 50 μg/plate
[7] = TA1535, presence of S9, 158 μg/plate
[8] = TA1535, presence of S9, 500 μg/plate
[9] = TA1535, presence of S9, 1581 μg/plate
[10] = TA1535, presence of S9, 5000 μg/plate
[11] = TA1537, absence of S9, 50 μg/plate
[12] = TA1537, absence of S9, 158 μg/plate
[13] = TA1537, absence of S9, 500 μg/plate
[14] = TA1537, absence of S9, 1581 μg/plate
[15] = TA1537, absence of S9, 5000 μg/plate
[16] = TA1537, presence of S9, 50 μg/plate
[17] = TA1537, presence of S9, 158 μg/plate
[18] = TA1537, presence of S9, 500 μg/plate
[19] = TA1537, presence of S9, 1581 μg/plate
[20] = TA1537, presence of S9, 5000 μg/plate

SMILES: COC1C(OP(=O)(OC[C@H]2O[C@@H](n3cnc4c(N)ncnc43)CC2O)SCOC(=O)OC(C)C)[C@@H](CO)O[C@H]1n1ccc(=O)[nH]c1=O (stereo partly shown) [Compound 2, S-isopropylcarbonyloxymethyl thiophosphate (6k) of 3′dApsU2′OMe]
- Number of revertants mean (TA1535; [1]): 14
- Number of revertants x1, x2, x3 (TA1535; [1]): 10 and 15 and 16
- Number of revertants mean (TA1535; [2]): 23
- Number of revertants x1, x2, x3 (TA1535; [2]): 21 (2×) and 26
- Number of revertants mean (TA1535; [3]): 17
- Number of revertants x1, x2, x3 (TA1535; [3]): 15 and 20 and 17
- Number of revertants mean (TA1535; [4]): 16
- Number of revertants x1, x2, x3 (TA1535; [4]): 13 and 18 and 17
- Number of revertants mean (TA1535; [5]): 18
- Number of revertants x1, x2, x3 (TA1535; [5]): 18 (2×) and 17
- Number of revertants mean (TA1535; [6]): 19
- Number of revertants x1, x2, x3 (TA1535; [6]): 21 and 15 and 20
- Number of revertants mean (TA1535; [7]): 16
- Number of revertants x1, x2, x3 (TA1535; [7]): 11 and 20 and 16
- Number of revertants mean (TA1535; [8]): 17
- Number of revertants x1, x2, x3 (TA1535; [8]): 19 and 13 and 20
- Number of revertants mean (TA1535; [9]): 22
- Number of revertants x1, x2, x3 (TA1535; [9]): 27 and 21 and 17
- Number of revertants mean (TA1535; [10]): 17
- Number of revertants x1, x2, x3 (TA1535; [10]): 18 and 16 (2×)
- Number of revertants mean (TA1537; [11]): 11
- Number of revertants x1, x2, x3 (TA1537; [11]): 8 and 17 and 9
- Number of revertants mean (TA1537; [12]): 12
- Number of revertants x1, x2, x3 (TA1537; [12]): 9 and 8 and 19
- Number of revertants mean (TA1537; [13]): 10
- Number of revertants x1, x2, x3 (TA1537; [13]): 15 and 6 and 10
- Number of revertants mean (TA1537; [14]): 15
- Number of revertants x1, x2, x3 (TA1537; [14]): 17 and 15 and 13
- Number of revertants mean (TA1537; [15]): 11
- Number of revertants x1, x2, x3 (TA1537; [15]): 15 and 9 and 8
- Number of revertants mean (TA1537; [16]): 17
- Number of revertants x1, x2, x3 (TA1537; [16]): 20 and 17 and 15
- Number of revertants mean (TA1537; [17]): 18
- Number of revertants x1, x2, x3 (TA1537; [17]): 16 and 18 and 21
- Number of revertants mean (TA1537; [18]): 17
- Number of revertants x1, x2, x3 (TA1537; [18]): 25 and 12 and 15
- Number of revertants mean (TA1537; [19]): 15
- Number of revertants x1, x2, x3 (TA1537; [19]): 18 and 15 and 13
- Number of revertants mean (TA1537; [20]): 12
- Number of revertants x1, x2, x3 (TA1537; [20]): 11 and 15 and 10
